In series [1] the target is T1, horse liver alcohol dehydrogenase (HLADH) (Equus caballus, UniProt P00327).
T1 construct: purchased Sigma
As to the kind of experiment: HLADH enzymatic chiral reduction of ketones with biomimic co-factor regeneration. Format: biochemical. The protocol: FIG. 7 presents structures of ketone substrates 12-15 used for biomimic chiral synthesis of corresponding alcohols. Conversion of the substrates 12-15 to their corresponding alcohols are expressed in % yield, and TOF in d^−1 and S-enantiomer excess (ee) are also shown for each conversion. Corresponding values obtained with NAD^+ are given in parenthesis. The S-enantiomeric excess (ee) was determined by GLC with a modified β-cyclodextrin capillary column.
[Cp*Rh(bpy)(H2O)]OTf2 (1.9 mg, 2.61×10^−3 mmol), sodium formate (17.8 mg, 261.69×10^−3 mmol), NAD^+ (8.1 mg, 11.23×10^−3 mmol) and HLADH (10 units) were placed in a 10 mL Schlenk flask, and Schlenk techniques were followed to deoxygenate the solid mixture.
Under positive argon pressure, 5 mL of potassium phosphate buffer (100 mM, pH=7.02, deoxygenated) and carbonyl substrate (83.58×10^−3 mmol, deoxygenated) were added via syringe. The reaction flask was immediately securely capped with a glass-stopper and shaken with a shaker in 30° C. water-bath. The reaction was monitored by gas chromatography (GC), equipped with a β-cyclodextrin column (Supelco, β-DEX-225), and the products were identified by comparing the retention time with the corresponding authentic chiral samples and were confirmed by GC-MS. The enantiomeric excess of the products was determined directly by their relative area in the chromatogram. The progress of the reaction was obtained by mixing the reaction aliquot with an internal standard (cyclohexanol in phosphate buffer), and then calibrating the measured relative area in the chromatogram with their corresponding response factors. The reaction was monitored for 24 hours.
The same procedure as described in section A was followed, except that NAD^+ was substituted with any one of the biomimic compounds of the invention.

Series [2] is described as follows: competitive regioselective substrate reduction experiments with rhodium catalyst precursor (2). The protocol: In order to establish whether the σ-donating ability or the electron-withdrawing effect of the 3-substituent of the 1-benzylnicotinamide was the important parameter, several competitive substrate reduction experiments were performed.
For this purpose, the compound (1a) 1-benzylnicotinamide, was reduced with rhodium catalyst precursor (2) in the presence of its alternatively substituted derivatives, compounds (1e), substituted with —C(O)—CH3, (1g), substituted with (—CN), (1d), substituted with —C(S)NH2 or (1f), substituted with —C(O)OCH3, and their competitive reduction was determined.

A short description of series [3]: stability observations (light, air, solvent). In kind it is physicochemical.
Series [4] is described as follows: UV-vis kinetics of the regioselective reduction with rhodium catalyst precursor (2) and formate. The following applies: for kcat rate constant for catalysis / r1 initial rate: [2] 2.725 × 10^−5 M, 299° K. The source says: The kinetics of the regioselective reduction reactions were further studied utilizing UV-vis techniques with the two biomimic compounds (1) and (6) and the results were compared to NAD^+ itself. Experimental conditions are described in Example 9.
The effect of the initial rate (ri) at low conversions to the 1,4-dihydro product (˜10%) was ascertained by varying the amount of substrate precatalyst (2) and sodium formate concentrations.
The initial rates (ri) of formation of compound (3) were obtained from plots of concentration (absorbance at 354 nm/ε) versus time at low conversions (˜10%). The values of kcat were calculated at 299° K.
Rates were obtained via UV-vis techniques and are an average of two runs.
This example describes studies producing kinetic and thermodynamic data for 1-benzylnicotinamide triflate (1a) performed in THF/H2O, 1:1, β-nicotinamide -5′-ribose methyl phosphate (6) H2O, pH=6.5, and NAD^+ performed in the regioselective reduction with [Cp*Rh(bpy)H2O)][OTf]2, 2 and in the presence of formate ion.
The kinetic experiments were carried out on a Hewlett Packard 8452A Diode Array Uv-Vis spectrophotometer, attached to a circulating water bath (VWR 1160). For experiments conducted at different temperatures, the circulating water bath, as well as the UV-vis instrument, were warmed up for at least an 1 hour before the kinic studies were initiated.
The 1-benzylnicotinamide triflate (1a) [CP*Rh(bpy)(H2O)][OTf]2 (2) and 1-benzyl-1,4 dihydronicotinamide (3) were synthesized by methods as described in Examples 2, 4 and 7. The NAD^+ and 1,4-NADH compounds were purchased from Sigma and used as received. The THF was distilled from Na and deoxygenate with N2 gas for 1 hour. Distilled water was purchased from Aldrich Chemical Co and deoxygenate prior to being used. A solution of THF/H2O (similar for 1:1 or 1:4 ratios) was used for all the kinetic experiments performed for compounds of 1-benzylnicotinamide type, unless otherwise specified. A stock solution of biomimic (1a) (0.018 M), 2 (6.23×10^−3 M), and sodium formate (0.25 M) were made for the kinetic experiments in THF/H2O (1:1).
A solution of 1-benzylnicotinamide triflate (1a), (4.29×10^−3 M) and sodium formate (0.0539) was made in a volumetric flask (10 mL) under N2 in a THF/H2O (1:1) mixture. The different concentration of biomimic (1a) and sodium formate used for the kinetic experiments are reported above.
A 3.0 mL aliquot of this solution was transferred to a thermostated UV-vis cell by using an air-free syringe, which was also purged with N2 gas. The sample was then brought to the desired temperature for 30-60 min in the UV-vis spectrophotometer thermostated cell holder. Then, 23 μL of a 6.23×10^−3 M stock solution of [CP*Rh(bpy)(H2O)^2+ (2), was added-by syringe under a positive N2 pressure, quickly mixed with the solution, and the absorbance increase at 354 nm was immediately recorded. The experiment was carried out for 2 hours and the formation of the product, 1-benzyl-1,4-dihydronicotinamide, (3) was followed, with the change in absorbance being recorded every 90 seconds. Some kinetic experiments were carried out until all the starting material was converted to product. The induced volume change was taken into account for the calculation of the turnover frequency (TOF).
The kinetic experiments for the β-nicotinamide-5′-ribose methyl phosphate (6) and natural NAD^+ were performed using the same general procedure described above. These kinetic experiments were carried out in H2O and the concentration of β-nicotinamide-5′-ribose methyl phosphate (6) or NAD^+, sodium formate, and [Cp*Rh(bpy)(H2O)]^2+ (2), were in the order of 1.50×10^−3, 0.0186 M, and 1.42×10^−5 M, respectively. The λmax for the β-nicotinamide-5′-ribose methyl phosphate, (6), and natural NAD^+ was 336 nm. In all the initial rate plots, time =0 s was removed from the plots of Concentration versus Time. The standard deviation of the ri were calculated from 2σ values.

Setting [5] is: [1a] 1.07 × 10^−3 M, HCO2Na 0.03266 M, 1:1 H2O/THF.
Where [6] appears, read: [1a] 1.61 × 10^−3 M, HCO2Na 0.03260 M, 1:1 H2O/THF.
Where [7] appears, read: [1a] 2.68 × 10^−3 M, HCO2Na 0.03266 M, 1:1 H2O/THF.
Setting [8] is: [1a] 2.68 × 10^−4 M, HCO2Na 0.03266 M, 1:1 H2O/THF.
The mark [9] stands for this setting: [1a] 5.37 × 10^−4 M, HCO2Na 0.03259 M, 1:1 H2O/THF.

Molecules are shown by their SMILES. Structures can show the parent of a compound that is named as a salt. Where only a bound is given, the exact number is not on record here.

T1 sequence (P00327 2-375 limits assumed): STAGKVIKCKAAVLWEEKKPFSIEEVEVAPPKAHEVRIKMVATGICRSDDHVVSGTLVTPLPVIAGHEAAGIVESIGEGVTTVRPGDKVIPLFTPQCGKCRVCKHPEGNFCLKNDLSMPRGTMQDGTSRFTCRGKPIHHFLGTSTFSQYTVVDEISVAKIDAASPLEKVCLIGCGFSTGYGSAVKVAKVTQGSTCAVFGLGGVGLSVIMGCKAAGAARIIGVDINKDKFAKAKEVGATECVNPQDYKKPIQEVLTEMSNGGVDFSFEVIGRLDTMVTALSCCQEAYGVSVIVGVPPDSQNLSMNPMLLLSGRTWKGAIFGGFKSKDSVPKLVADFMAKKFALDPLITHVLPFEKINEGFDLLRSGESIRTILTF

Take `NC(=O)c1ccc[n+](Cc2ccccc2)c1` [Compound 1a, 1-Benzylnicotinamide, Triflate Salt]: in series [1], the “recognition by HLADH as hydride catalyst of the chiral conversion” value is listed as “recognizes”. The “turnover frequency of chiral ketone reduction” value in series [1] (ketone (12) reduced by HLADH with co-factor regeneration, 24 hours) is about 30 day⁻¹. Moreover, in series [2] (competitive reduction of (1a) with (1e)), the “times faster than the —C(O)CH3 analog (1e)” value was 1.1 times. The “times faster than the —CN analog (1g)” value in series [2] (competitive reduction of (1a) with (1g)) amounted to 1.3 times. The stability result in series [3] is on record as “more stable in acqueous/organic solvent”. Also, the TOF in series [4] (294° K, 1:1 H2O/THF, substrate 4.29 × 10^−3 M) came out at 2 h⁻¹; in series [4] (H2O/THF 1:1, 1a 4.29 × 10^−3 M), 2 h⁻¹; in series [4] (H2O/THF 4:1, 1a 1.68 × 10^−3 M) it was 10 h⁻¹; in series [4] (H2O/THF 4:1, 1a 4.82 × 10^−3 M), 13 h⁻¹. The ri initial rate in series [4] (294° K, 1:1 H2O/THF, substrate 4.29 × 10^−3 M, HCO2Na 5.39 × 10^−2 M, (2) 4.33 × 10^−5 M) worked out at 1.23e-08 M/s; in series [4] (H2O/THF 1:1, 1a 4.29 × 10^−3 M, HCO2Na 5.39 × 10^−2 M, (2) 4.33 × 10^−5 M) it was 1.23e-08 M/s; in series [4] (H2O/THF 4:1, 1a 1.68 × 10^−3 M, HCO2Na 1.79 × 10^−3 M, (2) 1.71 × 10^−5 M), 4.31e-08 M/s; in series [4] (H2O/THF 4:1, 1a 4.82 × 10^−3 M, HCO2Na 5.52 × 10^−2 M, (2) 4.83 × 10^−5 M), 1.75e-07 M/s. In addition, the “increase in initial rate of formation of the 1,4-dihydro derivative (3a), factor” value in series [4] (THF/H2O from 1:1 to 1:4, comparable concentrations) was over 6. Further, the “kcat rate constant for catalysis” value in series [4] (setting [5]) worked out at 12.61 M^−2s^−1; in series [4] (setting [6]), 14.03 M^−2s^−1; in series [4] (setting [7]), 14.38 M^−2s^−1; in series [4] (setting [8]) it was 8.85 M^−2s^−1; in series [4] (setting [9]) it was 13.02 M^−2s^−1. For the same molecule, the r1 initial rate in series [4] (setting [5]) stood at 1.2e-08 M/s; in series [4] (setting [6]), 2.01e-08 M/s; in series [4] (setting [7]) it was 3.43e-08 M/s; in series [4] (setting [8]) it was 2.1e-09 M/s; in series [4] (setting [9]), 6.3e-09 M/s.
